# Measured values published in patent US7384966B2, “2-arylbenzothiazole derivatives” (Pharminxo Limited, priority 2004, dated 2008).
# Entries after “also recorded” stand apart in the source; their conditions may differ.
# Columns and labels:
# MCF-7 [1] = assay: Growth inhibition alone or in combination with resveratrol, MCF-7; format: cell-based, human; conditions: MCF-7 (cyp lal-inducible), resveratrol 51 μM
# Experimental: The results shown in FIGS. 3a and 3b were generated using MCF-7 (FIG. 3a) and HCC 2998 (FIG. 3b) cells. The said cells were treated with DF 203 or compound 1, alone or in combination with resveratrol (51 μM) an inhibitor of cyp lal activity. It can be seen that in MCF-7 cells (cyp lal-inducible) the activity of DF 203 was abolished.
# MCF-7 [2] = assay: MTT assay, 3 day exposure, MCF-7; format: cell-based; conditions: Homo sapiens, MCF7, 72 h, MCF-7 (breast), MTT, 3 day exposure, triplicate; read-out: GI50 values in cell lines, MCF-7
# Experimental: (§1) A range of compounds were evaluated in MTT assays following 3 day exposure against a panel of two human breast cancer cell lines MCF-7 (ER+) and MDA 468 (ER−), and two colon cancer cell lines KM12 and HCC 2998. In general the breast cell lines were more sensitive to the agents and the MDA 468 line the most sensitive of the four (Table 2). The benchmark active compound was 5-fluoro-2-(3,4-dimethoxyphenyl)benzothiazole (1) with GI50 values<0.1 nM against the two breast cell lines. […] The most interesting series of compounds were those combining a 5-fluoro group with two oxygenated substituents in the 3′,4′-positions where minor, seemingly conservative, structural changes were associated with a dramatic variations in activity (when compared to 1). […] In summary, this in vitro screen led to the identification of the fluorinated 2-(3,4-dimethoxyphenyl)benzothiazole structure as a novel antitumor pharmacophore with the 5-fluoro analogue (1) astride a pinnacle of activity.
# (§2) The assays/methods used to generate the results referred to herein are well known to those skilled in the art and therefore it has not been necessary to describe them in detail.
# KM 12 = assay: MTT assay, 3 day exposure, KM12; format: cell-based, human; conditions: Homo sapiens, KM12, 72 h, KM 12 (colon), MTT, 3 day exposure, triplicate; read-out: GI50 values in cell lines, KM 12
# Experimental: as §1, §2
# [3] = system: NCI in vitro 60 human cancer cell panel; assay: NCI in vitro 60 human cancer cell panel, sulforhodamine B assay; format: cell-based; conditions: NCI mean GI50 graphs, FIGS. 1 and 8 to 12
# Experimental: Results from the more extensive NCI in vitro 60 human cancer cell panel^15 corroborated the results (above). The mean GI50 values across the range of compounds (above), including the two series of esters (11-21) are an unremarkable 10-100 μM (data not shown); however, these values disguise significant cell selectivity. […] Full NCI mean GI50 graphs for compounds (1,2,3,4,101,102) are included herein as FIGS. 1 and 8 to 12.
# The results shown on FIG. 1 were generated by treating the cells with an active agent for 48 hours, in this case compound 1, before determination of viability by sulforhodamine B assay.
# MDA 468 = assay: MTT assay, 3 day exposure, MDA 468; format: cell-based; conditions: Homo sapiens, 72 h; MDA 468 (breast), MTT, 3 day exposure, triplicate; read-out: GI50 values in cell lines, MDA 468
# Experimental: as §1, §2
# HCC 2998 = assay: MTT assay, 3 day exposure, HCC 2998; format: cell-based; conditions: Homo sapiens, HCC 2998, 72 h, HCC 2998 (colon), MTT, 3 day exposure, triplicate; read-out: GI50 values in cell lines, HCC 2998
# Experimental: as §1, §2
# [4] = system: MCF-7, MDA 468, KM12 and HCC 2998; assay: MTT assay, panel of four cell lines, results in words; format: cell-based, human; conditions: compared to compound 1
# Experimental: as §1
# MCF-7 [5] = conditions: aminophenyl benzothiazole sensitive cells with inducible cyp lal; Hose et al 2003; cited from earlier work
SMILES,effect of resveratrol on growth inhibitory activity (MCF-7 [1]),effect of resveratrol on growth inhibitory activity (MCF-7 [1]; listed as DF 203),GI50 (MCF-7 [2]),GI50 (KM 12),sensitivity of cancer cell panels / antitumour activity in vitro [3],GI50 (MDA 468),GI50 (HCC 2998),growth inhibitory potency in words [4],melting point,effect of resveratrol on activity (MCF-7 [5])
"Cc1cc(-c2nc3ccccc3s2)ccc1N [Compound 101, 2-(4-amino-3-methylphenyl)benzothiazole, reference compound]",block the activity,abolished,< 0.1 nM,> 100000 nM,ovarian and breast cancer cells are particularly sensitive,< 0.1 nM,> 100000 nM,–,–,–
"COc1ccc(-c2nc3ccccc3s2)cc1OC [Compound 4, 2-(3,4-Dimethoxyphenyl)benzothiazole]",–,–,–,–,no cancer cells to be particularly sensitive; also recorded: attenuated pattern of activity,530 nM,–,retained sub-micromolar activity against MDA 468,141 to 143 °C,–
"COc1ccc(-c2nc3ccc(F)cc3s2)cc1OC [Compound 3, 6-Fluoro-2-(3,4-dimethoxyphenyl)benzothiazole]",–,–,62 nM,24100 nM,"reduced activity against cancer cells when compared to compound 1; also recorded: demonstrates antitumour activity in vitro; also recorded: potent (but attenuated compared to 1), activity in the colon and NSCL sub-panels",5 nM,6210 nM,retained nanomolar growth inhibitory potency against one or more of the cell lines,153 to 155 °C,–
"Cc1cc(-c2nc3cc(F)ccc3s2)ccc1N [Compound 102, 2-(4-amino-3-methylphenyl)-5-fluorobenzothiazole, reference compound]",–,–,< 0.1 nM,> 100000 nM,"non-small cell lung, ovarian, renal and breast cancel cells to be particularly sensitive",< 0.1 nM,> 100000 nM,–,–,block the activity
